Common to all, as to type: cell-based
In assay [1] the test system is HSP70 protein level. As to the kind of experiment: HSP70 ELISA (Enzo kit), normal human dermal fibroblasts, 24 h treatment. The settings on record: 0.01%, HDF cells, FIG. 4. As for the experimental part:
Normal human dermal fibroblasts (Cascade Biologics) were seeded into four wells of a six well plate (5.0×10^5 cells/well) and cultured overnight. The following day, cells were replenished with fresh media and test compositions were added. The test compositions including their control for each formulation: […]
Following 24 hours of treatment, the cells were lysed and the HSP70 protein level was measured using an ELISA kit (available from Enzo Life Sciences). Cells were lysed using the lysis buffer provided with the kit. The amount of proteins for each sample was calculated using the standard curve.
The assay was performed in triplicate for each sample and the values represent mean±S.D. (standard deviation).
A general note: An ELISA detects its analyte on a solid surface through an enzyme-linked reagent.

For assay [2], the system named is HSP70 protein level. The experiment in a line: HSP70 ELISA (Abcam kit), full thickness human 3D skin cultures (MatTek), 24 h treatment. The settings on record: 1% by weight, skin 3-D tissues, FIG. 6. The method, then: A series of experiments was conducted to assess the effects of various treatments with HSP70 inducers on full thickness 3D skin cultures. Human 3D skin (MatTek, Mass.) were cultured following the manufacturer's instructions overnight. The following day, tissues were replenished with fresh media and then compositions comprising various potential actives were added. Following 24 hours of treatment, the tissues were lysed and the HSP70 protein level was measured using an ELISA kit (available from Abcam). The amount of the proteins was calculated according to the standard curve. For these measurements, the test materials were formulated in control at 1% by weight of the composition or at 0.04% by weight of the composition (Arnica montana, rosemary, black cohosh, turmeric, chamomile, aloe, horse chestnut, linseed, grapeseed, argan oil, gromwell, marjoram, sage, lauric acid, butyric acid) or they were formulated in control at 0.04% by weight of the composition (licorice, tetrahydrocurcumin (THC), olive leaf, milk thistle, glutamate).
The results are shown in FIG. 6 as the measured amount of HSP70 proteins/μg total protein for each sample. Samples labeled with “*” indicate a p value compared to the control of less than 0.05.

Assay [3] deals with HSP70 protein level. The experiment in a line: HSP70 ELISA (Abcam kit), normal human dermal fibroblasts, 24 h treatment. As to conditions: for stimulation of HSP70 protein level as compared to control: HDF cells, FIG. 5; for HSP70 induction value (Control = 1): normal human dermal fibroblasts, FIG. 3. As for the experimental part: Normal human dermal fibroblasts were cultured in 6-well tissue culture treated plates. Cells were treated with test material (agent/compound) at the concentrations indicated, or with respective vehicle control diluted in growth medium, for 24 hours in a humidified 37° C. incubator with 5% CO2. After incubation, growth medium from each plate was removed and cells were lysed. HSP70 protein level in the cells was determined by a commercially available ELISA kit (Abcam, Cambridge, Mass.). In FIG. 3, Control induction value=1; shikonin (1 μM concentration) induction value=1.7; Arnica Montana (0.003% concentration) induction value=1.86; resveratrol (0.003% concentration) induction value=1.47; and G. T. polyphenol (0.003% concentration) induction value=1.24.
Similar experimentation on other HSP70 inducers was performed using an HSP70 ELISA kit (available from Abcam; cat. # ab133060). Briefly, normal human dermal fibroblasts (Cascade Biologics) were seeded into four wells of a six well plate (5.0×10^5 cells/well) and cultured overnight. The following day, cells were replenished with fresh media and test compositions were added. The test compositions including their control for each formulation: […]
The active ingredient was formulated in the ethanol:water control. Following 24 hours of treatment, the cells were lysed and the HSP70 protein level was measured using an ELISA kit (available from Abcam). Cells were lysed using the lysis buffer provided with the kit. The amount of proteins for each sample was calculated using the standard curve.
The assay was performed in triplicate for each sample and the values represent mean±S.D. (standard deviation). Samples labeled with “*” indicate a p value compared to the control of less than 0.05.

Take `C=C(C)[C@@H]1CCC(C)=C[C@H]1c1c(O)cc(CCCCC)cc1O` [CBD, cannabidiol]: in the assay with HSP70 protein level [1], the “stimulation of HSP70 protein level compared to its control” value is given as 189%.
For the compound `CCCC(=O)O` [butyric acid], in the assay with HSP70 protein level [2], the “stimulation of HSP70 protein levels as compared to control” value is recorded as 248%.
Turning to `Oc1ccc(/C=C/c2cc(O)cc(O)c2)cc1` [resveratrol, trans-3,5,4′-trihydroxystilbene], in the assay with HSP70 protein level [3] (0.003%), the “stimulation of HSP70 protein level as compared to control” value was determined as 147% and the “HSP70 induction value (Control = 1)” value was found to be 1.47.
`CC(C)=CC[C@@H](O)C1=CC(=O)c2c(O)ccc(O)c2C1=O` [shikonin]: in the assay on HSP70 protein level [3] (1 μM), the “stimulation of HSP70 protein level as compared to control” value turned out to be 170% and the “HSP70 induction value (Control = 1)” value stood at 1.7.
As to “epigallocatechin-3-gallate [G. T. polyphenol]”, in the assay on HSP70 protein level [3] (0.003%), the “stimulation of HSP70 protein level as compared to control” value amounted to 124% and the “HSP70 induction value (Control = 1)” value was determined as 1.24.
